Data from US20260174769A1, “MACROCYCLIC COMPOUNDS AND METHODS OF USE” (AMGEN INC., priority 2022, published 2026).
Counter-ions that a name gives are not always drawn. Like-named read-outs stand apart in the source and are kept apart here.

How the values were obtained:
[1] = molecular target: GDP-bound KRAS protein (aa 1-169), containing both G12D and C118A amino acid substitutions (Homo sapiens, UniProt P01116, C118A/G12D); test: KRAS G12D Coupled Nucleotide Exchange Assay; type: biochemical
Method: KRAS G12D Coupled Nucleotide Exchange Assay
The assay plates were then read on a PerkinElmer En Vision Multilabel Reader, using AlphaScreen® technology, and data were analyzed using a 4-parameter logistic model to calculate IC50 values.

[2] = molecular target: His-tagged KRAS G12D protein (Homo sapiens, UniProt P01116, G12D); test: KRAS G12D TR-FRET Assay; type: binding
Method: The His-tagged KRAS G12D protein (Amgen) was diluted to 20 nM in Assay Buffer (20 mM HEPES, pH 7.4, 10 mM MgCl2, 50 mM NaCl, 0.1% BSA, 0.01% Tween-20, 10 μM GDP) and 2 μL was added to the appropriate wells of the 384-well plate. The plate was incubated for 30 minutes at room temperature. Biotinylated KRPep-2d substrate (Amgen) was diluted to 20 nM in Assay Buffer and 2 μL was added to all wells and incubated for 1 hour at room temperature. Detection Reagent (0.4 nM LANCE Eu-W1024 Anti-6×His (Perkin Elmer AD0401), 5 nM streptavidin-d2 (Cisbio 610SADLA)) was prepared in Assay Buffer, then 4 μL was added to the plate and incubated for 1 hour at room temperature.

[3] = test system: Phosphorylation of ERK1/2 in AsPC-1 cells; test: Phospho-ERK1/2 MSD Assay; type: cell-based, human; details: read-out: 2 h p-ERK (AsPC-1 cells), IC50
Method: Sixteen hours prior to compound treatment, AsPC-1 cells were seeded in 96-well cell culture plates at a density of 25,000 cells/well and incubated at 37° C., 5% CO2. A compound dose-response titration was diluted in growth media, added to appropriate wells of a cell culture plate, and then incubated at 37° C., 5% CO2 for 2 hours. […] Phosphorylation of ERK1/2 in compound-treated lysates was assayed using Phospho-ERK 1/2 Whole Cell Lysate kits (Meso Scale Discovery K151DWD) according to the manufacturer's protocol. Assay plates were read on a Meso Scale Discovery Sector Imager 6000, and data were analyzed using a 4-parameter logistic model to calculate IC50 values.

[4] = read-out: KRAS G12D Binding IC50
[5] = 2 hours compound pre-incubation, SOS-mediated nucleotide exchange
[6] = Homo sapiens, ASPC1, 2 h, AsPC-1 cells, 2 h compound treatment
[7] = TR-FRET, read-out: KRAS G12D Binding IC50

Compound | IC50 [1, 5] [nM] | IC50 ([2]; TR-FRET binding) [nM] | further results
Cc1cc2[nH]ncc2c2c1CCCCC(=O)O[C@@H]1CCCN(C1)c1nc(OC[C@@]34CCCN3C[C@H](F)C4)nc3c(F)c-2ncc13 [Example 31, (17R)-30-Fluoro-24-(((2R,7aS)-2-fluorotetrahydro-1H-pyrrolo[1,2-a]pyrrol-7a(5H)-yl)methoxy)-9-methyl-16-oxa-5,6,21,23,25,29-hexaazahexacyclo[24.3.1.1˜17,21˜.0˜2,10˜.0˜3,7˜.0˜22,27˜]hentriaconta-1(30),2,4,7,9,22,24,26,28-nonaen-15-one bis(2,2,2-trifluoroacetate)] | – | – | IC50 [1]: 5 nM; IC50 [2, 4]: 7 nM
Cc1cc2[nH]ncc2c2c1CCCCCCC1(O)CCCN(C1)c1nc(OC[C@@]34CCCN3C[C@H](F)C4)nc3c(F)c-2ncc13 (mixture of isomers) [Example 44] | 266 | 160 | –
Cc1cc2[nH]ncc2c2c1CCCn1ncc(n1)C1CCCN(C1)c1nc(OC[C@@]34CCCN3C[C@H](F)C4)nc3c(F)c-2ncc13 (stereo partly drawn) [Example 158, 31-Fluoro-25-(((2R,7aS)-2-fluorotetrahydro-1H-pyrrolo[1,2-a]pyrrol-7a(5H)-yl)methoxy)-9-methyl-5,6,14,15,22,24,26,30,33-nonaazaheptacyclo[25.3.1.1˜14,17˜.1˜18,22˜.0˜2,10˜.0˜3,7˜.0˜23,28˜]tritriaconta-1(31),2,4,7,9,15,17(33),23,25,27,29-undecaene] | – | – | IC50 [3, 6]: 278 nM
O[C@@H]1C[C@H]2COCCCCc3c(Cl)cc4[nH]ncc4c3-c3ncc4c(nc(OC[C@@]56CCCN5C[C@H](F)C6)nc4c3F)N(C1)C2 (mixture of isomers) [Example 408, 2,2,2-trifluoroacetate salt] | – | – | IC50 [1]: 18 nM; IC50 [3]: 52.4 nM; IC50 [2, 4]: 24 nM
(185)-9-chloro-31-fluoro-25-(((2R,7a.S)-2-fluorotetrahydro-LH-pyrrolo[1,2-α]pyrrol-7a(5H)-yl)methoxy)-15-oxa-5,6,22,24,26,30,33-heptaazaheptacyclo[25.3.1.1~13,16~1~18,22~0~2,10~.0~3,7~.0~23,28~]tritriaconta-1(31),2,4,7,9,13,16(33),23,25,27,29-undecaene [Example 388] | – | – | IC50 [1]: 5 nM; IC50 [3]: 264 nM; IC50 [2, 4]: 13 nM
O=C1OCCc2c(Cl)cc3[nH]ncc3c2-c2ncc3c(nc(OC[C@@]45CCCN4C[C@H](F)C5)nc3c2F)N2CCC[C@]3(C[C@@H](CO3)O1)C2 (single isomer, unassigned) [Example 315] | 2 | 3 | –
O=C1OCCc2c(Cl)cc3[nH]ncc3c2-c2ncc3c(nc(OC[C@@]45CCCN4C[C@H](F)C5)nc3c2F)N2CCC[C@]3(C2)C[C@H](C3)O1 [Example 333, (1R,3S)-10-chloro-32-fluoro-24-(((2R,7aS)-2-fluorotetrahydro-1H-pyrrolo[1,2-a]pyrrol-7a(5H)-yl)methoxy)-4,6-dioxa-13,14,19,23,25,27-hexaazaheptacyclo[25.3.1.1~1,3~.1~18,22~.0~9,17~.0~12,16~.0~21,26~]tritriaconta-9,11,14,16,18(32),19,21,23,25-nonaen-5-one] | 127 | 314 | –
O=C1OCCCc2c(Cl)cc3[nH]ncc3c2-c2ncc3c(nc(OC[C@@]45CCCN4C[C@H](F)C5)nc3c2F)N2CCCC[C@@](CF)(C2)O1 [Example 339, (26S)-18-chloro-32-fluoro-26-(fluoromethyl)-4-(((2R,7aS)-2-fluorotetrahyrdo-1H-pyrrolo[1,2-a]pyrrol-7a(5H)-yl)methoxy)-23,25-dioxa-1,3,5,9,14,15-hexaazahexacyclo[24.4.1.1~6,10~.0~2,7~.0~11,19~.0~12,16~]dotriaconta-2,4,6,8,10(32),11,13,16,18-nonaen-24-one] | – | – | IC50 ([3]; AsPC-1 cells, 2 h compound treatment): 826 nM
O=C1N[C@@H]2C[C@H](O)CN(C2)c2nc(OC[C@@]34CCCN3C[C@H](F)C4)nc3c(F)c(ncc23)-c2c(c(Cl)cc3[nH]ncc23)CCCO1 (single isomer, unassigned) [Example 284] | 2 | 5 | –
CN(C)CC1(COc2nc3c4cnc(c(F)c4n2)-c2c(c(Cl)cc4[nH]ncc24)CCOC(=O)O[C@H]2C[C@]4(CCCN3C4)C2)CC1 [Example 334, (1S,3R)-10-chloro-24-((1-((dimethylamino)methyl)cyclopropyl)methoxy)-32-fluoro-4,6-dioxa-13,14,19,23,25,27-hexaazaheptacyclo[25.3.1.1~1,3~.1~18,22~.0~9,17~.0~12,16~.0~21,26~]tritriaconta-9,11,14,16,18(32),19,21,23,25-nonaen-5-one] | – | 2 | IC50 [3, 6]: 8 nM
O=C1OCCCc2c(Cl)cc3[nH]ncc3c2-c2ncc3c(nc(OC[C@H]4CC[C@@H]5COCCN54)nc3c2F)N2CCOC[C@H](C2)O1 [Example 185, (26S)-18-chloro-32-fluoro-4-((6R,8aR)-hexahydro-1H-pyrrolo[2,1-c][1,4]oxazin-6-ylmethoxy)-23,25,28-trioxa-1,3,5,9,14,15-hexaazahexacyclo[24.4.1.1~6,10~.0~2,7~.0~11,19~.0~12,16~]dotriaconta-2,4,6,8,10(32),11,13,16,18-nonaen-24-one] | 5 | 6 | –
O[C@@H]1C[C@@H]2COCCCCc3c(Cl)cc4[nH]ncc4c3-c3ncc4c(nc(OC[C@@]56CCCN5C[C@H](F)C6)nc4c3F)N(C1)C2 (single isomer, unassigned) [Example 406] | – | – | IC50 [2, 7]: 21 nM
C[C@@]12CCCCN(C1)c1nc(OC[C@@]34CCCN3C[C@H](F)C4)nc3c(F)c(ncc13)-c1c(c(Cl)cc3[nH]ncc13)CCCCC(=O)N2 (single isomer, unassigned) [Example 166] | – | 5 | –

Continued, in another order:

IC50 [1, 5] [nM] | IC50 ([2]; TR-FRET binding) [nM] | Compound | further results
5630 | 20200 | CC12COCCN(C1)c1nc(OC[C@@]34CCCN3C[C@H](F)C4)nc3cc(nnc13)-c1c(c(Cl)cc3[nH]ncc13)CCCOC(=O)O2 (single isomer, unassigned) [Example 363] | –
376 | 1230 | CN1C(=O)OCCCc2c(Cl)cc3[nH]ncc3c2-c2ncc3c(nc(OC[C@@]45CCCN4C[C@H](F)C5)nc3c2F)N2C[C@H](O)C[C@H]1C2 (single isomer, unassigned) [Example 287] | –
5 | 8 | CC12COCCN(C1)c1nc(OC[C@@]34CCCN3C[C@H](F)C4)nc3cc(nnc13)-c1c(c(Cl)cc3[nH]ncc13)CCCOC(=O)O2 (single isomer, unassigned) [Example 362] | –
19 | 55 | O=C1CCCc2c(Cl)cc3[nH]ncc3c2-c2ncc3c(nc(OC[C@@]45CCCN4C[C@H](F)C5)nc3c2F)N2CCCC(CC1)C2 (mixture of isomers) [Example 236] | IC50 [3, 6]: 950 nM
11 | 21 | O=C1OCCc2c(Cl)cc3[nH]ncc3c2-c2ncc3c(nc(OC[C@@]45CCCN4C[C@H](F)C5)nc3c2F)N2CCC[C@@]3(C[C@H](CO3)O1)C2 (single isomer, unassigned) [Example 314] | –
198 | – | (17R,18R)-9-chloro-31-fluoro-25-(((2R,7aS)-2-fluorotetrahydro-1H-pyrrolo[1,2-α]pyrrol-7a(5H)-yl)methoxy)-19,33-dioxa-5,6,15,22,24,26,30-heptaazaheptacyclo[25.3.1.1~13,16~.1~18,22~.0~2,10~.0~3,7~.0~23,28~]tritriaconta-1(31),2,4,7,9,13,15,23,25,27,29-undecaen-17-ol [Example 395] | IC50 [2, 7]: 1170 nM
– | 464 | [2H]C([2H])([2H])[C@]12COCCN(C1)c1nc(OC[C@@]34CCCN3C[C@H](F)C4)nc3c(F)c(ncc13)-c1c(c(C)cc3[nH]ncc13)CCCOC(=O)O2 (single isomer, unassigned) [Example 351] | –
– | 5 | O=C1OC/C=C\c2c(Cl)cc3[nH]ncc3c2-c2ncc3c(nc(OC[C@@]45CCCN4C[C@H](F)C5)nc3c2F)N2CCC[C@H](C2)O1 (single isomer, unassigned) [Example 122] | –
– | 3 | C[C@@]12COCCN(C1)c1nc(OC[C@@]34CCCN3C[C@H](F)C4)nc3c(F)c(ncc13)-c1c3c(cc4[nH]ncc14)CC[C@H]3CCOC(=O)O2 (single isomer, unassigned) [Example 365] | –
– | 8070 | Fc1c2ncc3c(nc(OC[C@@]45CCCN4C[C@H](F)C5)nc13)N1CCOC[C@@H](C1)c1cnn(n1)CCCc1c(Cl)cc3[nH]ncc3c1-2 (single isomer, unassigned) [Example 297] | –
– | 99 | Cc1cc2[nH]ncc2c2c1CCOC(=O)O[C@H]1C[C@@]3(CCCN(C3)c3nc(OC[C@@H]4CCCN4C)nc4c(F)c-2ncc34)C1 (single isomer, unassigned) [Example 325] | –
